Experimental data reported in publication PMC5845004, “Novel (p)ppGpp Binding and Metabolizing Proteins of Escherichia coli” (mBio, 2018).
Entries after “also recorded” stand apart in the source; their conditions may differ. Where two headings read alike, the source gives them in different places.

Assays:
Hpt = Hpt (Escherichia coli, UniProt P0A9M2); experiment: DRaCALA competition assay, Hpt; assay type: binding, E. coli; conditions: 20 µM Hpt, 2 nM hot ppGpp, 100 µM cold competitor
Experimental: (§5) For Kd measurements by DRaCALA, 2-fold serial dilutions from the highest possible concentrations of each purified protein were prepared in binding buffer B, and approximately 2 nM concentrations of α-^32P-labeled ppGpp, pppGpp, GTP, and GDP were added. The mixtures were incubated for 5 min at RT before spotting of 2 µl of the reaction mixtures onto nitrocellulose membranes. The fractions of bound ligand and the apparent Kd values were calculated as previously described ([37]). For competition assays, purified proteins at the specified concentrations were incubated with 2 nM [α-^32P]ppGpp or [α-^32P]pppGpp in the presence of 100 μM competitor nucleotides in binding buffer B. The reaction mixtures were incubated for 5 min at RT, 2 µl was spotted onto nitrocellulose membranes, and the values corresponding to the bound fractions were determined. EDTA was added at excess concentrations as specified for each case.

TrmE = TrmE (Escherichia coli, UniProt P25522); experiment: In vitro cleavage assay (TLC), TrmE; assay type: biochemical, E. coli; conditions: 10 µM TrmE, buffer B, with 100 mM potassium where stated, 10 min
Chain of TrmE (P25522 whole entry): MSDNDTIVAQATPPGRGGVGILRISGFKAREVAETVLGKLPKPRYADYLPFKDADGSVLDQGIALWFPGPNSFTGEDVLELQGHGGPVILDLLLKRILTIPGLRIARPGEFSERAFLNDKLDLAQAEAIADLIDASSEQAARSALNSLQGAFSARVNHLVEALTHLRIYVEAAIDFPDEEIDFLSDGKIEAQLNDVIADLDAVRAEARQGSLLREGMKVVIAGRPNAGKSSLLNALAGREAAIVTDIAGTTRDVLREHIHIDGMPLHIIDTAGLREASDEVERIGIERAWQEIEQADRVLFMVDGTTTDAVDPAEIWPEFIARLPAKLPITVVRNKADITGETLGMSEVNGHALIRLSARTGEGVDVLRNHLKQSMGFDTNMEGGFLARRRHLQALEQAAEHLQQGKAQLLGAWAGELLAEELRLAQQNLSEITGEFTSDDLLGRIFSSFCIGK
Experimental: (§1) The purified His6-MutT and His6-NudG proteins were tested for their relative levels of cleavage of ppGpp compared to those seen with their native substrates. For this, a 1 μM concentration of each protein and a 10 nM concentration of [α-^32P]ppGpp were used together with 100 μM concentrations of cold competitors [ppGpp, GTP, ATP, 8-oxo-(d)GTP, 2-hydroxyl-(d)ATP] or 50 mM EDTA in buffer B. The samples were incubated at 30°C for 10 min and for 1 h before the reactions were stopped by adding 50 mM EDTA. The cleavage products were resolved by TLC as described above. The purified His6-NadR and His6-TrmE proteins were tested for their cleavage of both GTP and ppGpp. For cleavage of GTP, 10 μM concentrations of His6-MBP, His6-TrmE, and 20 μM His6-NadR proteins were used with 2 nM [α-^32P]GTP and 100 μM cold GTP in buffer B. For cleavage of ppGpp, 10 μM concentrations of His6-TrmE, His6-MBP, and His6-NadR proteins were used with 10 nM [α-^32P]ppGpp in buffer B. Of note, for His6-TrmE, another reaction was also performed in buffer B supplemented with 100 mM KCl. The reactions were performed at RT for 10 min and were stopped by adding 17% formic acid. The cleavage products were resolved by TLC as described above.
(§2) A 20 μM concentration of each of purified proteins MutT, NudG, NadR, TrmE, and MBP (as a negative control) was incubated with 100 μM ppGpp in buffer B (containing 40 mM Tris [pH 7.5], 100 mM NaCl, and 10 mM MgCl2) for 20 min at room temperature. Samples were snap-frozen on dry ice and analyzed with UPLC-MS afterward. All samples and buffers were stored at −80°C, thawed on ice, and kept at 4°C during analysis. For the analysis, a UPLC-quadrupole time of flight (UPLC-qTOF) method (Waters) was used. […] The detection conditions were as follows: photodiode array detector (PDA), […] (evaluated at 260 nm); MS, ionization; electrospray ionization (ESI+), scan, 200 to 800 m/z with lock mass correction. […]

PurA [1] = target: T1, PurA (Escherichia coli, UniProt P0A7D4); conditions: cited from earlier work
T1 sequence (P0A7D4 whole entry): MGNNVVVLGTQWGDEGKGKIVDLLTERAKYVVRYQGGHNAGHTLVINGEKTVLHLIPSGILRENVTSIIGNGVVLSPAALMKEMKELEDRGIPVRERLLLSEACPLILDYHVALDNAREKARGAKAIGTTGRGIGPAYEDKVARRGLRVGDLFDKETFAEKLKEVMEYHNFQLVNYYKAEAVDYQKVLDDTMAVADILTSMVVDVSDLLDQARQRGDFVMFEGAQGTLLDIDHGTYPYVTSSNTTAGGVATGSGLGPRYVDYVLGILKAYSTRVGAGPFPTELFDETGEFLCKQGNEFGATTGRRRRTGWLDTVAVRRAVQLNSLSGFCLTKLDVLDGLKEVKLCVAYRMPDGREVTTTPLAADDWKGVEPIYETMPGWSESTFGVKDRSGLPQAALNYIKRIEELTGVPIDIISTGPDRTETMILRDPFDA

RNAP /DksA = tested on: RNAP /DksA; set-up: method as in Table S1 (14); conditions: ref Table S1 (14); cited from earlier work
Apt [2] = target: T2, Apt (Escherichia coli, UniProt P69503); experiment: DRaCALA binding, purified Apt; set-up: species or system E. coli; conditions: up to 150 µM Apt
T2 sequence (P69503 whole entry): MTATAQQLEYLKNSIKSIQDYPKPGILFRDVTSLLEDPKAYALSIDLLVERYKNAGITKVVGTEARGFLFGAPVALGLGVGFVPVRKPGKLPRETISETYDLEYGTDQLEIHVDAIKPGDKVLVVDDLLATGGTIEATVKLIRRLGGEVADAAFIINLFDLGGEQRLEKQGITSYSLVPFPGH

MutT = MutT (Escherichia coli, UniProt P08337); experiment: In vitro cleavage assay (TLC), MutT; assay type: biochemical, E. coli; conditions: purified MutT, buffer B with 10 mM MgCl2, TLC
Chain of MutT (P08337 whole entry): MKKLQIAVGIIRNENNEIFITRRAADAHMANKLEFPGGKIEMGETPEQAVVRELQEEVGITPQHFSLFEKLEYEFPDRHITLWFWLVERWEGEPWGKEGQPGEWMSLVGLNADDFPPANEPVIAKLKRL
Experimental: as §1
(§3) A 20 μM concentration of each of purified proteins MutT, NudG, NadR, TrmE, and MBP (as a negative control) was incubated with 100 μM ppGpp in buffer B (containing 40 mM Tris [pH 7.5], 100 mM NaCl, and 10 mM MgCl2) for 20 min at room temperature. Samples were snap-frozen on dry ice and analyzed with UPLC-MS afterward. All samples and buffers were stored at −80°C, thawed on ice, and kept at 4°C during analysis. For the analysis, a UPLC-quadrupole time of flight (UPLC-qTOF) method (Waters) was used. Analysis conditions were as follows: column, zic-HILIC (Merck Millipore) (150 by 2.1 mm, […], gradient elution, flow rate set to 0.3 ml/min); mobile phase A, 10 mM ammonium acetate (pH 5); mobile phase B, 90% acetonitrile with 10 mM ammonium acetate (pH 5). The gradient was set up as follows: min 0 to 2, 80% B; min 2 to 16, 80% B to 50% B; hold until min 20; injection volume, 4 µl. The detection conditions were as follows: photodiode array detector (PDA), […] (evaluated at 260 nm); MS, ionization; electrospray ionization (ESI+), scan, 200 to 800 m/z with lock mass correction. Analytes were identified by their accurate mass and retention time data for a known standard dissolved in used buffer (for the chemicals of the same nominal masses). These standards were either synthesized and their structures confirmed by nuclear magnetic resonance (NMR) (for ppGp, pGpp, and pGp) or purchased (ppGpp was purchased from Jena Biocsience and GTP from Sigma-Aldrich).

DnaG [3] = conditions: ref Table S1 (12); cited from earlier work
NudG = target: T3, NudG (Escherichia coli, UniProt P77788); experiment: In vitro cleavage assay (TLC), NudG; assay type: biochemical, E. coli; conditions: purified NudG, buffer B with 10 mM MgCl2, TLC
T3 construct: expressed in transfected cells; host or cells: E. coli ASKA collection strain, IPTG-induced, whole-cell lysate
T3 sequence (P77788 whole entry): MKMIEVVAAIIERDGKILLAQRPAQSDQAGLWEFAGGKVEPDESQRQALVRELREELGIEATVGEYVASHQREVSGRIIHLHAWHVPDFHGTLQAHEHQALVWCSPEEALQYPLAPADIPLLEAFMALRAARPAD
Experimental: as §1, §3

YgdH [4] = target: T4, YgdH (Escherichia coli, UniProt P0ADR8); experiment: DRaCALA binding and Kd determination, purified YgdH; set-up: species or system E. coli; conditions: 20 µM YgdH, binding buffer with 10 mM MgCl2, no EDTA
T4 sequence (P0ADR8 whole entry): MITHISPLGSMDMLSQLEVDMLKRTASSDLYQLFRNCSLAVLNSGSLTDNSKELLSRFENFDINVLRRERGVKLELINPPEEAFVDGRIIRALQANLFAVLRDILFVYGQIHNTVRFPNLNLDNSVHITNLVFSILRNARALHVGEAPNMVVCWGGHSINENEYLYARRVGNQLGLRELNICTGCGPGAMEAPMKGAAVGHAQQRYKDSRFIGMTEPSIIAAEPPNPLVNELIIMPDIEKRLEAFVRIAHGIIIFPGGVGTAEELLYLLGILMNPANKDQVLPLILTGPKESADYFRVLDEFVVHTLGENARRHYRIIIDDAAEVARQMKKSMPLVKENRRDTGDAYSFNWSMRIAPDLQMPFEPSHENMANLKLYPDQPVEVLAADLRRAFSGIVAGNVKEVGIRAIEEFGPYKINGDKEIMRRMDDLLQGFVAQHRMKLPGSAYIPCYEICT
Experimental: For Kd measurements by DRaCALA, 2-fold serial dilutions from the highest possible concentrations of each purified protein were prepared in binding buffer B, and approximately 2 nM concentrations of α-^32P-labeled ppGpp, pppGpp, GTP, and GDP were added. The mixtures were incubated for 5 min at RT before spotting of 2 µl of the reaction mixtures onto nitrocellulose membranes. […] For competition assays, purified proteins at the specified concentrations were incubated with 2 nM [α-^32P]ppGpp or [α-^32P]pppGpp in the presence of 100 μM competitor nucleotides in binding buffer B. The reaction mixtures were incubated for 5 min at RT, 2 µl was spotted onto nitrocellulose membranes, and the values corresponding to the bound fractions were determined. EDTA was added at excess concentrations as specified for each case.

YgdH [5] = target: T4, YgdH; experiment: DRaCALA competition assay, YgdH; assay type: binding, E. coli; conditions: 100 µM cold competitor; data not shown
RelA = tested on: RelA; set-up: method as in ref 36 (Table S1 ref 16); conditions: ref 36 (Table S1 ref 16); cited from earlier work
NadR = NadR (Escherichia coli, UniProt P27278); experiment: In vitro cleavage assay (TLC), NadR; assay type: biochemical, E. coli; conditions: 10-20 µM NadR, buffer B with 100 mM NaCl, 10 min
Chain of NadR (P27278 whole entry): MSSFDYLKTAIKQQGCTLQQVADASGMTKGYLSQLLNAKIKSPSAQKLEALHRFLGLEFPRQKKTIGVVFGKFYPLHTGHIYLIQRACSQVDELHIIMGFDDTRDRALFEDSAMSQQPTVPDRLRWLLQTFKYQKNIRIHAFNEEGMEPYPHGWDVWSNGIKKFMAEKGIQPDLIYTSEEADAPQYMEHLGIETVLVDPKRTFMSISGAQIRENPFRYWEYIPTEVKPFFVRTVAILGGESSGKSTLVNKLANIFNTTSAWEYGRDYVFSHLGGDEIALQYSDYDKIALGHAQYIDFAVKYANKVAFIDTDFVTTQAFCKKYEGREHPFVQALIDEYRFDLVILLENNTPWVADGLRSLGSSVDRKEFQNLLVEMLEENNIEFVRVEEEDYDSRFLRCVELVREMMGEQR
Experimental: The purified His6-MutT and His6-NudG proteins were tested for their relative levels of cleavage of ppGpp compared to those seen with their native substrates. For this, a 1 μM concentration of each protein and a 10 nM concentration of [α-^32P]ppGpp were used together with 100 μM concentrations of cold competitors [ppGpp, GTP, ATP, 8-oxo-(d)GTP, 2-hydroxyl-(d)ATP] or 50 mM EDTA in buffer B. The samples were incubated at 30°C for 10 min and for 1 h before the reactions were stopped by adding 50 mM EDTA. The cleavage products were resolved by TLC as described above. The purified His6-NadR and His6-TrmE proteins were tested for their cleavage of both GTP and ppGpp. […]
as §2, with “afterward.” for “afterward. All samples and buffers were stored at −80°C, thawed on ice, and kept at 4°C during analysis. For the analysis, a UPLC-quadrupole time of flight (UPLC-qTOF) method (Waters) was used.”

Apt [6] = target: T2, Apt; conditions: ref Table S1 (2); cited from earlier work
YybT /GdpP = conditions: other bacteria, cited from earlier work
DnaG [7] = tested on: DnaG; set-up: method as in Table S1 (13); conditions: ref Table S1 (13); read-out: IC50, B. subtilis DnaG; cited from earlier work
Gpt = Gpt (Escherichia coli, UniProt P0A9M5); experiment: DRaCALA competition assay, Gpt; assay type: binding, E. coli; conditions: 20 µM Gpt, 2 nM hot ppGpp, 100 µM cold competitor
Chain of Gpt (P0A9M5 whole entry): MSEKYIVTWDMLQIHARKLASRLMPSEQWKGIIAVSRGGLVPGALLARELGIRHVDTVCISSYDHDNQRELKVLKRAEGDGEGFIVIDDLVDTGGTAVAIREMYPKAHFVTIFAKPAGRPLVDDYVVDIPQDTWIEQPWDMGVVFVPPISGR
Experimental: The mixtures were incubated for 5 min at RT before spotting of 2 µl of the reaction mixtures onto nitrocellulose membranes. […] For competition assays, purified proteins at the specified concentrations were incubated with 2 nM [α-^32P]ppGpp or [α-^32P]pppGpp in the presence of 100 μM competitor nucleotides in binding buffer B. The reaction mixtures were incubated for 5 min at RT, 2 µl was spotted onto nitrocellulose membranes, and the values corresponding to the bound fractions were determined.

YgdH [8] = target: T4, YgdH; experiment: TLC of YgdH binding reactions (degradation test); assay type: biochemical, E. coli; conditions: binding reactions analyzed by TLC
PurA [9] = target: T1, PurA; experiment: DRaCALA binding, purified PurA; set-up: species or system E. coli; conditions: PurA up to 150 µM
Experimental: as §5

UshA = target: T5, UshA (Escherichia coli, UniProt P07024); experiment: Cleavage of (p)ppGpp by UshA; assay type: biochemical, E. coli
T5 sequence (P07024 26-550): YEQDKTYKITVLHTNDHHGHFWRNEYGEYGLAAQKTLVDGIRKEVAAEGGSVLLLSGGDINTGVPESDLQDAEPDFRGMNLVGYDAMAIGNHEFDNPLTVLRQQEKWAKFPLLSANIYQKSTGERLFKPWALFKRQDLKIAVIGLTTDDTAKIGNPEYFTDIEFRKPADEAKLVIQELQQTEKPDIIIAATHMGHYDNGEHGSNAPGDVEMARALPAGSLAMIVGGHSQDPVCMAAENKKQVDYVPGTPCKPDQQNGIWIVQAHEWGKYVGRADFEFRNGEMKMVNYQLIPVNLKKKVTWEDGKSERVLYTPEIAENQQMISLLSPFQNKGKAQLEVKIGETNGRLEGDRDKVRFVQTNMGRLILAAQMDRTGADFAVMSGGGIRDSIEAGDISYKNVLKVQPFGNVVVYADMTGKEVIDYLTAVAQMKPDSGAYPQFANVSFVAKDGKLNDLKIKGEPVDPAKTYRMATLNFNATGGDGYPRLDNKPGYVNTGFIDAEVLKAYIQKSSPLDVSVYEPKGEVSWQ
Source text: (§4) Supplement mbo001183765st1.docx, table 1: Table S1. List of proteins that bind or cleave (p)ppGpp. | column: Binding (Kd or otherwise stated in µM) or cleavage of (p)ppGpp in E. coli

GuaB = target: GuaB; set-up: method as in ref 29, 31, 47 (Table S1 ref 5); conditions: 47 (Table S1 ref 5); cited from earlier work
PhoA = PhoA (Escherichia coli, UniProt P00634); experiment: Cleavage of (p)ppGpp by PhoA; assay type: biochemical, E. coli
Chain of PhoA (P00634 22-471): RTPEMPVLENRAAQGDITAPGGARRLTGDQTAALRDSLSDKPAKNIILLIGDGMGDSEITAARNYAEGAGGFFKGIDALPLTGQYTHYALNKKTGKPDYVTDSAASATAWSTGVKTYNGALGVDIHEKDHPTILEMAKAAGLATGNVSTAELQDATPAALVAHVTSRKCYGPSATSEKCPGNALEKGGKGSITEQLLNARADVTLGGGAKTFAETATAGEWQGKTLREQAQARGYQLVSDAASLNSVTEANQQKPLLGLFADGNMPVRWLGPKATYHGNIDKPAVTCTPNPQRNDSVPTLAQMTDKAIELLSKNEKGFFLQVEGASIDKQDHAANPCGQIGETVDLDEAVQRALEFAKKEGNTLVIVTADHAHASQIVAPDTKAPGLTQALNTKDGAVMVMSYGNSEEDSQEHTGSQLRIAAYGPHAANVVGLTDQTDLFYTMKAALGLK
Source text: as §4

Chain of Hpt (P0A9M2 whole entry): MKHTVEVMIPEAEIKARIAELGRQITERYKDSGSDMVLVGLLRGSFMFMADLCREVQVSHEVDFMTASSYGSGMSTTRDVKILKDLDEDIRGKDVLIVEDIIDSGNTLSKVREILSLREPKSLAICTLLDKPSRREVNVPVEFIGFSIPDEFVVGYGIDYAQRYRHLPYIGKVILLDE

Substance: (p)ppGpp
- competition for bound [α-32P]ppGpp on Hpt (Hpt): partially outcompete
- cleavage by TrmE (TrmE): some degradation; also recorded: Cleavage of (p)ppGpp into ppGp/pGpp
- Ki (PurA [1]; ref Table S1 (5)): 140 µM
- Ki (PurA [1]; ref Table S1 (6)): 50 µM
- IC50 (RNAP /DksA): 15 µM
- binding to Apt (Apt [2]): no significant binding
- cleavage by MutT (MutT): Cleavage of (p)ppGpp into pGp
- IC50 (DnaG [3]): 200 µM
- cleavage by NudG (NudG): Cleavage of (p)ppGpp into pGp
- binding to purified YgdH (YgdH [4]): not able to significantly bind
- competition for (p)ppGpp binding to YgdH (YgdH [5]): could outcompete
- effect on RelA activity (RelA): Synthesis of and stimulated by (p)ppGpp; (16)
- cleavage by NadR (NadR): some degradation; also recorded: Cleavage of (p)ppGpp into ppGp/pGpp
- IC50 (Apt [6]): 1500 µM
- Ki (YybT /GdpP; ref Table S1 (21)): 36 µM
- Ki (YybT /GdpP; ref Table S1 (22)): 130 µM
- IC50 (DnaG [7]): 500 µM
- competition for bound [α-32P]ppGpp on Gpt (Gpt): partially outcompete
- degradation by YgdH (YgdH [8]): not degraded
- binding to PurA (PurA [9]): no specific binding; also recorded: does not significantly bind
- cleavage by UshA (UshA): Non-specific cleavage of (p)ppGpp into (p)pi
- Ki (GuaB): 30 to 50 µM
- cleavage by PhoA (PhoA): Non-specific cleavage of (p)ppGpp into (p)pi
